One series relates to striatal synaptosomes. The following applies: [3H] DA 1 to 10 nM, 30 degree C; for Km: read-out: [3H] DA uptake Km, mean±SEM of three. The protocol:
Dopamine (DA) uptake was measured as follows. Striatal synaptosome tissue pools (3 animals/pool) were homogenized in 100 volume (v/w) of 0.32 M sucrose in a teflonglass homogenizer and centrifuged at 12,000 rpm for 10 minutes. The crude synaptosomal pellet was resuspended in 0.32 M sucrose at a concentration of 30 mg/ml (original wet weight) and divided into 30 μl aliquots. Each aliquot was added with 270 μl of Krebs-Ringer phosphate buffer with increasing concentrations of [^3H] DA (final 1–10 nM, […], Amersham Pharmacia Biotech UK Ltd.). After incubating the resultant solution for 3 minutes at 30° C., uptake was quickly terminated by filtration through Whatman GF/C glass filters. The filters were rinsed three times with 2.5 ml ice-cold 0.32 M sucrose and measured by using a liquid scintillation counter at an efficiency of 50%. Blank values were measured in the presence of 10 μM GBR12909.
[^3H] DA was mixed with striatal synaptosomes and [^3H] DA uptake into tissues was measured (the above-mentioned method A-6-1). The homogenate of the striatal synaptosomes was incubated for 2 minutes at 30° C. in the presence of [^3H] DA (1 to 10 nM).

The test system of another series is nucleus accumbens (NAC). As to the kind of experiment: In vivo microdialysis of nucleus accumbens: METH-induced DA release and locomotion. Also noted: species or system mouse. On the procedure:
Mice were anaesthetized with sodium pentobarbital (80 mg/kg i.p.) and placed in a stereotaxic apparatus. A hole was drilled through the skull and an intracerebral guide cannula (CMA 11, CMA/Microdialysis AB) was inserted into the nucleus accumbens (NAC) and fixed with dental cement. The stereotaxic coordinates for implantation of the guide cannula in both wild-type and PTPζ-deficient mice were: anterior, +1.1 mm, ventral, +3.6 mm, lateral, +1.0 mm to the surface of bregma. 24 hours after the surgery, mice were chained to a counterbalance lever arm attached to a locomotor activity chamber (30×30 cm) with an infrared monitoring apparatus (SCANET LC-10, Toyo Sangyo Co., Ltd.). Dialysis probes (membrane length 1 mm; external diameter 0.24 mm; cuprophane CUP 11, CMA/Microdialysis AB) were inserted through the guide cannula and perfusion was performed with artificial cerebrospinal fluid (ACSF), pH 7.4, (in mM; 145.ONaCl, 2.7 KCl, 1.2 CaCl2, 1.0 MgCl2, and 2.0 NaH2PO4) at a flow rate of 2 μl/min. Perfusates were collected from freely moving animals every 20 minutes in a tube containing 20 μl of 0.4 M HClO4 (CMA 170). Samples were collected and assayed using HPLC-ECD as described above except for the following modifications: the column was MCM C-18 (4.6×150 mm) and the buffer contained 75 mM NaH2PO4, 1.7 mM 1-octanesulfonic acid sodium salt, 0.1 mM triethylamine, 25 μM EDTA·2Na and 10% acetonitrile, at flow rate of 0.55 ml/min at 30° C. The electrode was set at +320 mV. METH administration (1 mg/kg s.c.) or local infusion of high K^+ solution (in mM: 47.7 NaCl, 100.0 KCl, 1.2 CaCl2, 1.0 MgCl2, and 2.0 NaH2PO4, pH 7.4) through the microdialysis probe was performed after the state became steady.

The test system of another series is mice. As to the kind of experiment: Effects of psychostimulant drugs on locomotor activity. The class given is in vivo, mouse. On the procedure:
The effects of psychostimulant drugs on locomotor activity were measured in a clear acrylic chamber (40×40×40 cm) by measuring animal movements with an electromagnetic activity monitoring system (sensor unit 0603, scanner 1099, Panlab). Before drug administration, the animals were acclimated to the measurement circumstance for at least 90 minutes. The animals were then administered with a stimulant drug, methamphetamine (METH) (1 mg/kg, s.c.), GBR12909 (2 mg/kg, i.p.), apomorphine (1 mg/kg, s.c.), or p-chloro-amphetamine (2 mg/kg, i.p.), and saline as administered to a control, and locomotor activity was monitored for the next 60 minutes.

Another series has as its system mouse gastric epithelium. As to the kind of experiment: Gastric ulcer formation caused by oral pleiotrophin. The class given is in vivo. The conditions noted are these: 48 hours. The protocol:
The role of PTPζ in gastric ulcer formation caused by pleiotrophin was examined as follows. After a mouse (female) of 4 weeks old was starved for 24 hours (fed water ad libitum), pleiotrophin (Peptide Institute, Inc.) was orally administered to the mouse with a sound. 48 hours later, gastric specimens were prepared and the surface of inside wall of stomach was observed by a stereomicroscope, and then pathologic specimens were prepared by hematoxylen eosin staining and analyzed.

For orientation: Km means the concentration of substrate that gives half-maximal velocity.

Where two headings read alike, the source gives them in different places.

With `NCCc1ccc(O)c(O)c1` [[^3H] DA, dopamine], in the series with striatal synaptosomes (PTPζ+/+ mice), the “[3H] DA uptake Vmax” value is listed as 45.74 ± 2.77 pmol/3 min/mg and the Km was 0.109 ± 0.00245 µM. Besides, in the series on striatal synaptosomes (PTPζ−/− mice), the “[3H] DA uptake Vmax” value was found to be 58.70 ± 1.03 pmol/3 min/mg and the Km is 0.147 ± 0.0113 µM.
For `CN[C@@H](C)Cc1ccccc1` [methamphetamine], in the series on nucleus accumbens (NAC) (PTPζ−/− mice (n=6), 1 mg/kg, s.c., microdialysis), the “DA release in NAC, PTPζ-deficient compared to wild-type mice” value is “markedly diminished DA release”. For the same molecule, the “METH-enhanced locomotion, PTPζ−/− compared to wild-type mice” value with nucleus accumbens (NAC) (freely moving animals during microdialysis, infrared monitoring apparatus) was “statistically attenuated”. For the same molecule, the “extracellular DA in nucleus accumbens” value in the series with nucleus accumbens (NAC) (wild-type mice (n=7), 1 mg/kg, s.c., microdialysis) is “definitely increased”. Moreover, the “locomotor response, PTPζ−/− compared to wild-type mice” value in the series on mice (1 mg/kg, s.c., electromagnetic sensors, n=9 per genotype) is “significantly attenuated locomotor response”.
Take `CN1CCc2cccc3c2[C@H]1Cc1ccc(O)c(O)c1-3` [apomorphine]: the “locomotor activity, responsiveness of PTPζ-deficient mice” value in the series on mice (2 mg/kg, s.c., total counts during 60 minutes after administration) was “normal”.
On to `CC(N)Cc1ccc(Cl)cc1` (centres unmarked) [p-chloro-amphetamine], for which the “locomotor activity, sensitivity of PTPζ-deficient mice” value in the series on mice (2 mg/kg, i.p., total counts during 60 minutes after administration, 5-HT liberator) is reported as “hyposensitive”.

B1: pleiotrophin: a heparin-binding secretory protein of 18 kD that binds to extracellular regions of PTPζ (protein, UniProt P21246 33-168, looked up)
Pleiotrophin: GKKEKPEKKVKKSDCGEWQWSVCVPTSGDCGLGTREGTRTGAECKQTMKTQRCKIPCNWKKQFGAECKYQFQAWGECDLNTALKTRTGSLKRALHNAECQKTVTISKPCGKLTKPKPQAESKKKKKEGKKQEKMLD
As for B1, the figures for the “hematoxylen eosin staining of gastric specimens” value in the series with mouse gastric epithelium (PTPζ-deficient mice) and with mouse gastric epithelium (wild-type mice) were “totally normal” and “obvious damage”, respectively. For the same molecule, the “epithelial damage on gastric epithelium under a stereomicroscope” value in the series on mouse gastric epithelium (PTPζ−/− mice) is “no damage was observed”; in the series with mouse gastric epithelium (wild-type mice) it was “Profuse bleeding”.

Source of the values: US7166761B2, “Method of screening PTPζ activity promoter or inhibitor” (priority 2000, dated 2007).
